From publication PMC5339480, “Mutagenic and Cytotoxicity LQB 123 Profile: Safety and Tripanocidal Effect of a Phenyl-t-Butylnitrone Derivative” (BioMed Research International, 2017)

Columns and labels:
[1] = system: Salmonella typhimurium TA97; test: Salmonella/microsome assay, TA97; format: cell-based; conditions: +S9, positive control (PC) 517 μM
Text: (§1) DMSO was used as a negative control. […] All chemicals were from Sigma Co.

[2] = system: Salmonella typhimurium TA98; test: Salmonella/microsome assay, TA98; format: cell-based; conditions: +S9, positive control (PC) 517 μM
Text: as §1

[3] = system: Salmonella typhimurium TA100; test: Salmonella/microsome assay, TA100
Protocol: (§2) Stationary growth cultures of histidine auxotrophic Salmonella typhimurium (2 × 10^9 cells/mL) TA97, TA98, TA100, TA102, and TA1535 strains were obtained at 37°C in lysogenic broth (LB, 10 g/L tryptone; 5 g/L yeast extract; 10 g/L NaCl) containing 8 μg/mL ampicillin and 2 μg/mL tetracycline (only for TA102). All strains used in the present work were from our laboratory collection. […] Then, the Ames test was performed according to Maron and Ames. DMSO was used as a negative control. […] All chemicals were from Sigma Co.

[4] = system: Salmonella typhimurium TA1535; test: Salmonella/microsome assay, TA1535
Protocol: as §2

T. cruzi = system: T. cruzi; design: method as in PMID 20510218; conditions: treated only with PBN; cited from earlier work
Salmonella = conditions: cited from earlier work
[5] = TA100, −S9, positive control (PC) 769 μM
[6] = TA1535, −S9, positive control (PC) 154 μM

## Nc1ccc2cc3ccccc3cc2c1 [2-AA, 2-aminoanthracene]
[1]
  MI (mutagenicity index): 9.0
  Number of revertant colonies per plate, Mean ± SD: 1488 ± 139^∗
[2]
  MI (mutagenicity index): 16.0
  Number of revertant colonies per plate, Mean ± SD: 291 ± 36^∗
[3]; Salmonella typhimurium
  MI (mutagenicity index): 4.6
  Number of revertant colonies per plate, Mean ± SD: 1257 ± 107^∗
[4]; Salmonella typhimurium
  MI (mutagenicity index): 10.1
  Number of revertant colonies per plate, Mean ± SD: 168 ± 18^∗

## CC(C)(C)/[N+]([O-])=C/c1ccccc1 [PBN, alpha-phenyl-tert-butyl nitrone]
T. cruzi
  parasite persistence: no decline in parasite persistence

## O=C(Cn1ccnc1[N+](=O)[O-])NCc1ccccc1 [benznidazole]
Salmonella
  dose giving the maximum mutagenic rate: 100 micrograms per plate

## [N-]=[N+]=[N-].[Na+] [AS, sodium azide]
[3]; [5]
  MI (mutagenicity index): 3.2
  Number of revertant colonies per plate, Mean ± SD: 637 ± 52^∗
[4]; [6]
  MI (mutagenicity index): 47.3
  Number of revertant colonies per plate, Mean ± SD: 615 ± 83^∗
